According to patent US11530206B2, “Phenylaminopyrimidine amide autophagy inhibitors and methods of use thereof” (Deciphera Pharmaceuticals, LLC, priority 2019, dated 2022):
pIC50: −log10 of the molar value.

Experiments:
[1] = target: T1, ULK1 kinase (Homo sapiens, UniProt O75385); test: Biochemical assay for ULK1.2 (coupled pyruvate kinase/lactate dehydrogenase assay); details: 19 nM ULK1 (residues 1-314, His tag), myelin basic protein, 1 mM ATP
T1 construct: purchased Eurofins 14-959
T1 sequence (O75385 with tags, fused parts or gaps): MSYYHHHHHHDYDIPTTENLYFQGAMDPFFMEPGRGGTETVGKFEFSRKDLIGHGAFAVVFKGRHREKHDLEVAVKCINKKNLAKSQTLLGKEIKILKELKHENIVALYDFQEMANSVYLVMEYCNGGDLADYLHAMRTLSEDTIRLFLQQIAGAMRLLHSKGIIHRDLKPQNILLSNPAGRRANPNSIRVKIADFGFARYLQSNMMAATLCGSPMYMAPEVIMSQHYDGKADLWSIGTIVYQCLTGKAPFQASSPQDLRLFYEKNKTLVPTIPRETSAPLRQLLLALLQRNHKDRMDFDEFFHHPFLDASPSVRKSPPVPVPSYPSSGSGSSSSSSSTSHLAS
Protocol: Biochemical Assay for ULK1.2 (SEQ. ID NO: 1)
Inhibition of ULK1 was measured by adding serial diluted test compound (final assay concentration of 1% DMSO). A decrease in absorption at 340 nm was monitored continuously for 6 hours at 30° C. on a multi-mode microplate reader (BioTek). The reaction rate was calculated using the 2-3 h time frame. The reaction rate at each concentration of compound was converted to percent inhibition using controls (i.e. reaction with no test compound and reaction with a known inhibitor) and IC50 values were calculated by fitting a four-parameter sigmoidal curve to the data using Prism (GraphPad software).

[2] = target: T2, LRRK2 kinase (Homo sapiens, UniProt Q5S007); test: Biochemical assay for LRRK2 (coupled pyruvate kinase/lactate dehydrogenase assay); details: 26.4 nM LRRK2 (residues 970-2528), peptide substrate, 1 mM ATP
T2 construct: purchased Thermo Fisher
T2 sequence (Q5S007 with tags, fused parts or gaps): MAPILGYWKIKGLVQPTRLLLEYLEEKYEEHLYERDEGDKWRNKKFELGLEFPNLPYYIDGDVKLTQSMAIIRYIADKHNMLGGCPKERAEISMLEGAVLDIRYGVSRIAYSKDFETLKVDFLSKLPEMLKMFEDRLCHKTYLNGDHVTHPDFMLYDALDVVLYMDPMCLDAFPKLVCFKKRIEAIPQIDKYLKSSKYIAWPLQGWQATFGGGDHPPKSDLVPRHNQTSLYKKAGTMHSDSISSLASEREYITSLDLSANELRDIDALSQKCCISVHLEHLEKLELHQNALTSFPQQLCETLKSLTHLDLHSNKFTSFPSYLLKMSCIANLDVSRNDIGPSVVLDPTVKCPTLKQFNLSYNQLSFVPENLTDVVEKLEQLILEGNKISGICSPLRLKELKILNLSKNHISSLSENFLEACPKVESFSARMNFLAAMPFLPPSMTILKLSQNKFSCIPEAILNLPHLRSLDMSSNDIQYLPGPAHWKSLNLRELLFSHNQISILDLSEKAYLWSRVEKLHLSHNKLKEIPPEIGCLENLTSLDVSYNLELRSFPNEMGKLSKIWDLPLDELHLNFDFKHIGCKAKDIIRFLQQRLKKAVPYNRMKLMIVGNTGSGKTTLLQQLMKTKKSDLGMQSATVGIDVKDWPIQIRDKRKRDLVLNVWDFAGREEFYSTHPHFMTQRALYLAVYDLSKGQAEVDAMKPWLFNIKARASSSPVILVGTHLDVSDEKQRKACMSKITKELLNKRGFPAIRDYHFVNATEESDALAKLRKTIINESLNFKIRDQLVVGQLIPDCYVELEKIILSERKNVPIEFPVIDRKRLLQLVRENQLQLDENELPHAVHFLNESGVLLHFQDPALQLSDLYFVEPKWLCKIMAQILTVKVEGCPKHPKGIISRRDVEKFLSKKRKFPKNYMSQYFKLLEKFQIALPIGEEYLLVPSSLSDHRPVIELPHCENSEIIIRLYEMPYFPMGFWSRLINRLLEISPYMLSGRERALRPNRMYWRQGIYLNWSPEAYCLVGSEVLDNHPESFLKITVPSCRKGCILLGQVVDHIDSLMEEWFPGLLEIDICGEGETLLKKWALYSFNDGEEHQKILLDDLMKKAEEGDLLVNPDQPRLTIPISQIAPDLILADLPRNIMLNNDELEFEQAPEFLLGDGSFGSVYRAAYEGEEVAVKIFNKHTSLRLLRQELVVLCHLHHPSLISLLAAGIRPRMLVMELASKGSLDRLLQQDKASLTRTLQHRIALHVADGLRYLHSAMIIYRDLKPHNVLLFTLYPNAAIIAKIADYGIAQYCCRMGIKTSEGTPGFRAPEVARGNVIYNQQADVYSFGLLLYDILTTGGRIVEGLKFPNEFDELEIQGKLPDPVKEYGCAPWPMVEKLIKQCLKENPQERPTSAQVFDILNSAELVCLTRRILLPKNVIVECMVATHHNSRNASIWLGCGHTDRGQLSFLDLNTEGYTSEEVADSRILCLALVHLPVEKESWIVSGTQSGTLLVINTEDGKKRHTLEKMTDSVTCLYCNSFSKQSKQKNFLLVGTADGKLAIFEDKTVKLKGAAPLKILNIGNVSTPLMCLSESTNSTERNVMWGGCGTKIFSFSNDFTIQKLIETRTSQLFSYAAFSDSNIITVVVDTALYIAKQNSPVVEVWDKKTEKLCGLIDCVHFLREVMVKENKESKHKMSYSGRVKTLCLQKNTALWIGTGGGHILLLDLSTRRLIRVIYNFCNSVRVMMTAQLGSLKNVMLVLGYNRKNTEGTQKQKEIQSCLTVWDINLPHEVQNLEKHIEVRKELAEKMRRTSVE
Protocol: Example 138. Biochemical Assay for LRRK2 (SEQ. ID NO: 4)
Activity of LRRK2 kinase was determined spectroscopically using a coupled pyruvate kinase/lactate dehydrogenase assay that continuously monitors the ATP hydrolysis-dependent oxidation of NADH (e.g., Schindler et al. Science (2000) 289: 1938-1942). Assays were conducted in 384-well plates (100 μL final volume) using 26.4 nM LRRK2 (Thermo Fisher), 0.1 mM peptide substrate ([…] (SEQ ID NO: 6)), 1.5 units pyruvate kinase, 2.1 units lactate dehydrogenase, 1 mM phosphoenol pyruvate, 0.28 mM NADH and 1 mM ATP in assay buffer (100 mM Tris, pH 7.5, 15 mM MgCl2, 0.5 mM DTT, 0.004% (w/v) BSA, and 0.004% Triton X-100). Inhibition of LRRK2 was measured by adding serial diluted test compound (final assay concentration of 1% DMSO). A decrease in absorption at 340 nm was monitored continuously for 6 hours at 30° C. on a multi-mode microplate reader (BioTek). The reaction rate was calculated using the 2-3 h time frame. The reaction rate at each concentration of compound was converted to percent inhibition using controls (i.e. reaction with no test compound and reaction with a known inhibitor) and IC50 values were calculated using software routines in Prism (GraphPad software).

[3] = tested on: ULK kinase; test: pATG13 levels of mutant KRas A549 cells after treatment with ULK inhibitors in combination with trametinib (ELISA); assay type: cell-based, human; details: A549 (KRAS mutant) lung cancer cells, 250 nM trametinib, overnight, pS318-ATG13
Protocol: Cellular Inhibition of ULK Kinase Substrate ATG13 Protein pATG13 Levels of Mutant KRas A549 Cells after Treatment with ULK Inhibitors in Combination with Trametinib
(§1) A549 (KRAS mutant) human lung cancer cells (6,000 cells/well) were added to a 384-well tissue-culture treated plate in 50 μL of pre-warmed DMEM medium supplemented with 10% characterized fetal bovine serum (Invitrogen, Carlsbad, Calif.), 100 units/mL penicillin G, and 100 μg/mL streptomycin and allowed to grow overnight at 37° C., 5% CO2, and 95% humidity. The following day, 10 μL of media containing trametinib or DMSO as a control was added to wells. […] A dose response of a test compound (0.6 μL per well) was added. DMSO (0.6 μL) was added to control wells. The plate was briefly shaken to mix wells and then incubated at 37° C. overnight. The next day, the media was aspirated and cells were washed with Dulbecco's Phosphate Buffered Saline (Gibco). Cells were lysed using MPER lysis buffer (Pierce, Rockford, Ill.) containing Halt Phosphatase and Protease Inhibitors (Pierce, Rockford, Ill.) and Phosphatase inhibitor cocktail 2 (Sigma, St. Louis, Mo.) at 4° C. for 10 minutes with shaking.
(§2) Plate wells were washed with ELISA wash buffer. Cell lysate was added to wells and incubated at room temperature for 2 hours. Plate wells were washed with ELISA wash buffer. […] Plate wells were washed with ELISA wash buffer. […] Plate wells were washed with ELISA wash buffer. […] The reaction was stopped with 2N Sulfuric Acid. The plate was analyzed at on a plate reader measuring absorbance at 450 nm and 540 nm (background). Signal was calculated by first subtracting the background absorbance at 540 nm from the absorbance at 450 nm for each well. Next, the background corrected absorbance at 450 nm from blank wells was subtracted from test wells. Data was compared to control wells to determine % ATG13 phosphorylation. GraphPad Prism was used to calculate IC50 values.

[4] = tested on: ULK kinase; test: pATG13 levels of mutant KRas MiaPaCa-2 cells after treatment with ULK inhibitors in combination with trametinib (ELISA); assay type: cell-based, human; details: MiaPaCa-2 pancreatic cancer cells, 250 nM trametinib, overnight, pS318-ATG13
Protocol: as §1, with “MiaPaCa-2” for “A549 (KRAS mutant)”, “pancreatic” for “lung”, “(10000” for “(6,000”, “G, 100 µg/mL streptomycin,” for “G,”, “2.5% Horse Serum” for “100 μg/mL streptomycin”
as §2

[5] = target: T3, ULK1 kinase (Homo sapiens, UniProt O75385, E37A/K38A); test: Biochemical assay for ULK1.3 (coupled pyruvate kinase/lactate dehydrogenase assay, peptide substrate); details: 0.1 nM ULK1 (residues 1-283), 1 mM ATP
T3 construct: purchased Beryllium
T3 sequence (O75385 1-283 E37A/K38A): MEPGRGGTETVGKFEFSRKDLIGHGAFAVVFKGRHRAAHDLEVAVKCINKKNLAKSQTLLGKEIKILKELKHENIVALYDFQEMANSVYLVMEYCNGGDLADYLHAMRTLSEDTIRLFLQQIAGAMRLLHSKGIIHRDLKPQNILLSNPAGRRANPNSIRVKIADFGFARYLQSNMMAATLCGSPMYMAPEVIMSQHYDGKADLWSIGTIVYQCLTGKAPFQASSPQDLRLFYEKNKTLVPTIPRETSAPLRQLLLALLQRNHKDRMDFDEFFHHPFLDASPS
Protocol: Biochemical Assay for ULK1.3 (SEQ. ID NO: 2)
Inhibition of ULK1 was measured by adding serial diluted test compound (final assay concentration of 1% DMSO). A decrease in absorption at 340 nm was monitored continuously for 6 hours at 30° C. on a multi-mode microplate reader (BioTek). The reaction rate was calculated using the 2-3 h time frame. The reaction rate at each concentration of compound was converted to percent inhibition using controls (i.e. reaction with no test compound and reaction with a known inhibitor) and IC50 values were calculated using software routines in Prism (GraphPad software).

Structure (SMILES) | pIC50 [1] | pIC50 [2] | pIC50 [3] | pIC50 [4] | pIC50 [5]
CC1(C)CCC(=O)N1CCCNc1nc(Nc2ccc(N3CCN(C4CC4)CC3)cc2)ncc1C1CC1 [Example 1] | < 6.30 | < 6.22 |  |  | 
Cc1cc(N2CCNCC2)ccc1Nc1ncc(C(F)(F)F)c(NCCCN2CCCC2=O)n1 [Example 3] | 6.30 to 7.00 |  |  |  | 
Cc1cc(C2CCN(C)CC2)ccc1Nc1ncc(Cl)c(NCCCN2CCCCC2=O)n1 [Example 6] | < 6.30 |  |  |  | 
Cc1cc(N2CCNCC2)ccc1Nc1ncc(C(F)(F)F)c(NCCCN2CCCCC2=O)n1 [Example 16] | 7.60 to 9.00 |  | 7.00 to 8.00 | 7.00 to 8.00 | 
Cc1cc(N2CCN(C(C)C)CC2)ccc1Nc1ncc(C(F)(F)F)c(NCCCN2CCCCC2=O)n1 [Example 17] | 7.60 to 9.00 |  |  |  | 
COCc1cc(N2CCN(C)CC2)ccc1Nc1ncc(C(F)(F)F)c(NCCCN2CCOCCC2=O)n1 [Example 127] |  | 6.22 to 6.52 | 6.52 to 7.00 | 6.52 to 7.00 | 7.60 to 9.00
CCc1cc(N2CCN(C)CC2)ccc1Nc1ncc(C#N)c(NCCCN2CCOCCC2=O)n1 [Example 129] |  | < 6.22 | 6.22 to 6.52 | 6.52 to 7.00 | 7.00 to 7.60
COCc1cc(N2CCN(C)CC2)ccc1Nc1ncc(C(F)(F)F)c(NCCCN2CCCOC2=O)n1 [Example 147] |  | 6.22 to 6.52 | 6.52 to 7.00 | 6.52 to 7.00 | 7.60 to 9.00
CN1CCN(c2ccc(Nc3ncc(C(F)(F)F)c(NCCCN4CCC(C)(C)OC4=O)n3)c(C3CC3)c2)CC1 [Example 148] |  | 6.52 to 7.00 | 7.00 to 8.00 | 7.00 to 8.00 | 7.60 to 9.00

Continued, values first:

pIC50 [1] | pIC50 [2] | pIC50 [3] | pIC50 [4] | pIC50 [5] | Structure (SMILES)
6.30 to 7.00 | 7.00 to 9.00 |  |  |  | Cc1cc(N2CCN(C)CC2)ccc1Nc1ncc(C(F)(F)F)c(NCCCN2CCCC2=O)n1 [Example 2]
< 6.30 | 6.52 to 7.00 |  |  |  | Cc1cc(C2CCNCC2)ccc1Nc1ncc(Cl)c(NCCCN2CCCCC2=O)n1 [Example 5]
 | 7.00 to 9.00 | 6.52 to 7.00 | 7.00 to 8.00 | 7.00 to 7.60 | CN1C[C@@H]2C[C@H]1CN2c1ccc(Nc2ncc(C(F)(F)F)c(NCCCN3CCCOC3=O)n2)c(C2CC2)c1 [Example 117]
 | 6.52 to 7.00 | 6.52 to 7.00 | 7.00 to 8.00 | 7.60 to 9.00 | CCc1cc(N2C[C@@H]3C[C@H]2CN3C)ccc1Nc1ncc(C(F)(F)F)c(NCCCN2CCOCCC2=O)n1 [Example 119]
 | 6.52 to 7.00 | 6.52 to 7.00 | 6.52 to 7.00 | 7.60 to 9.00 | CCc1cc(N2C[C@@H]3C[C@H]2CN3C)ccc1Nc1ncc(C(F)(F)F)c(NCCCN2CCCOC2=O)n1 [Example 120]
 | 7.00 to 9.00 | 6.22 to 6.52 | 6.52 to 7.00 | 7.60 to 9.00 | CCc1cc(N2CCN3CCC[C@H]3C2)ccc1Nc1ncc(C(F)(F)F)c(NCCCN2CCOCCC2=O)n1 [Example 122]
 | 6.52 to 7.00 | 7.00 to 8.00 | 7.00 to 8.00 | 7.60 to 9.00 | CCc1cc(N2C[C@H]3C[C@@H]2CN3C)ccc1Nc1ncc(C(F)(F)F)c(NCCCN2CCOCCC2=O)n1 [Example 124]
 | 7.00 to 9.00 | 7.00 to 8.00 | 7.00 to 8.00 | 7.60 to 9.00 | CN1C[C@H]2C[C@@H]1CN2c1ccc(Nc2ncc(C(F)(F)F)c(NCCCN3CCOCCC3=O)n2)c(C2CC2)c1 [Example 125]
 | 7.00 to 9.00 | 6.52 to 7.00 | 7.00 to 8.00 | 7.60 to 9.00 | CN(C)C1CN(c2ccc(Nc3ncc(C(F)(F)F)c(NCCCN4CCCCC4=O)n3)c(C3CC3)c2)C1 [Example 126]
 | 6.52 to 7.00 | 6.52 to 7.00 | 6.22 to 6.52 | 7.60 to 9.00 | CN1CCN(c2ccc(Nc3ncc(C(F)(F)F)c(NCCCN4CCOCCC4=O)n3)c(Br)c2)CC1 [Example 131]
 | 7.00 to 9.00 | 6.52 to 7.00 | 7.00 to 8.00 | 7.60 to 9.00 | CN1CCN(c2ccc(Nc3ncc(C(F)(F)F)c(NCCCN4CCOCCC4=O)n3)c(Cl)c2)CC1 [Example 132]
